In article PMC9772252 (Cell chemical biology, 2022) one finds Kd data, which are given here for 1 compound.

The target in this test is T1, GPX4 (glutathione peroxidase 4) (Homo sapiens, UniProt P36969, U73C).
T1 sequence (P36969 33-197 U73C): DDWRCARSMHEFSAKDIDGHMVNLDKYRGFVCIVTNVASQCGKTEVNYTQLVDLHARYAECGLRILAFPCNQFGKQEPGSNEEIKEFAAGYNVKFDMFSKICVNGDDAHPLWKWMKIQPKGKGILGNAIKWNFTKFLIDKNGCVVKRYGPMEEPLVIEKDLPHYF
Description: SPR. The class given is binding.

`COC(=O)c1ccc([C@H]2c3[nH]c4ccccc4c3C[C@H](C(=O)OC)N2C(C)=O)cc1` [RSL3-minus-Cl, Methyl (1S,3R)-2-acetyl-1-(4-(methoxycarbonyl)phenyl)-2,3,4,9-tetrahydro-1H-pyrido[3,4-b] indole-3-carboxylate]: the affinity, expressed as Kd, was 60 µM.
